These results are taken from patent publication US20260070918A1, “HETEROBICYCLIC COMPOUNDS AS EP4 RECEPTOR ANTAGONISTS” (priority 2022, published 2026).

For series [1], the target named is EP4 receptor (Homo sapiens (Human), UniProt P35408). Put plainly: EP4 receptor binding assay (inhibition of [3H]PGE2 binding). The conditions noted are these: human recombinant Chem-1 cells, 1 nM [3H]PGE2, 2 hours @25° C. The procedure: Transfected HEK 293(ebna) cells are maintained in culture and harvested, and membranes are prepared by differential centrifugation, following lysis of the cells in the presence of protease inhibitors, for use in receptor binding assays. Prostanoid receptor binding assays (for DP1, DP2 (CRTH2), EP1, EP2, EP3-III, EP4, FP, IP, and TP) are performed in 10 mM MES/KOH (pH 6.0) (EPs, FP and TP) or 10 mM HEPES/KOH (pH 7.4) (DPs and IP), containing 1 mM EDTA, 2.5-30 mM divalent cation and the appropriate radioligand that specifically binds to a target prostanoid receptor. Synthetic compounds are added in dimethyl sulfoxide which is kept constant at 1% (v/v) in all incubations. The reaction is initiated by addition of membrane protein. Non-specific binding is determined in the presence of 10 μM of the corresponding non-radioactive prostanoid. Incubations are conducted for 60-90 min at room temperature or 30° C. and terminated by rapid filtration. Compound binding is calculated as a % inhibition of the binding of the radioligand after subtracting nonspecific binding from total binding. The residual specific binding at each ligand concentration is calculated and expressed as a function of ligand concentration to construct sigmoidal concentration-response curve. Half maximal inhibitory concentration, IC50 values of compounds are determined by nonlinear regression analysis of the concentration-response curves using Hill equation curve fitting equation Y=D+[(A−D)/(1+C/IC50)^H], where Y=specific binding, A=left asymptote of the curve, D=right asymptote of the curve, C=compound concentration, and H=slope factor. The binding affinity of the compounds is determined by calculating the equilibrium inhibition constant (Ki) from the equation Ki═InPt/1+[radioligand]/Kd where Kd is the equilibrium dissociation constant for the radioligand: receptor interaction and InPt is the inflection point of the dose-response curves.
Sequence of EP4 receptor (P35408 whole entry): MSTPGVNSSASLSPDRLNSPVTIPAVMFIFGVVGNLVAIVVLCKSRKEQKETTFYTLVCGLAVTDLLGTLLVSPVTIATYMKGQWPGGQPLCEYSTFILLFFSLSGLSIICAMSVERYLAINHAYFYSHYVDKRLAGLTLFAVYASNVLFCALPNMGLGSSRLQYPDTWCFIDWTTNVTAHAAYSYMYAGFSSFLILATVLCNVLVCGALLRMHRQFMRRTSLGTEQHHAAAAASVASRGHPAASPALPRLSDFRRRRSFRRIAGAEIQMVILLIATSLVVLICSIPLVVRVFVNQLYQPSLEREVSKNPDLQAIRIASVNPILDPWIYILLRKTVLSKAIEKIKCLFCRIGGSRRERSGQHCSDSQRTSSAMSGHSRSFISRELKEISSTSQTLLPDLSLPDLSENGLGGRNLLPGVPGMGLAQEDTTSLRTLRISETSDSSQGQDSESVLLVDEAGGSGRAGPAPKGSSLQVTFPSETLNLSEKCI
EP4 receptor binding assays were performed at MSD Pharma Service in Taiwan under the following assay conditions: • Source: Human recombinant Chem-1 cells • Ligand: 1 nM [^3H]

Series [2] can be described thus: Liver microsomal stability, mouse. The conditions noted are these: pooled mouse liver microsomes; for microsomal CLint: read-out: In vitro CLint; for half-life: read-out: In vitro T1/2; for CLint scaled: read-out: Scale-up CLint. The format is in vitro ADME. The protocol: (§1) Microsomal stability assay is performed to understand the metabolism of the representative compounds.
(§2) In vitro microsomal stability was determined in pooled human, dog, rat, and mouse liver microsomes. Test compounds (Table 2) were incubated in the presence and absence of NADPH for 0-60 min and the amount of remaining compound was quantified through LC-MS/MS analysis.
A general note: Liver microsomes are vesicles of endoplasmic reticulum, rich in cytochrome P450 enzymes.

Series [3] is described as follows: Liver microsomal stability, human. It is filed as in vitro ADME. The conditions noted are these: pooled human liver microsomes; for microsomal CLint: read-out: In vitro CLint; for half-life: read-out: In vitro T1/2; for CLint scaled: read-out: Scale-up CLint. The protocol: as §1, §2
Series [4] in a line: Liver microsomal stability, rat. It is filed as in vitro ADME. The conditions noted are these: pooled rat liver microsomes; for microsomal CLint: read-out: In vitro CLint; for half-life: read-out: In vitro T1/2; for CLint scaled: read-out: Scale-up CLint. The protocol: as §1, §2
Series [5] in a line: Rat pharmacokinetic (PK) assay. It is filed as in vivo, Sprague-Dawley rat. The protocol: Test compound was dissolved in 10% DMSO, 40% PEG-400, and 50% water for intravenous (i.v.) and oral (p.o.) administration to rat. […] Three male animals received single p.o. doses by gavage tube (5 mg/kg). Blood samples were collected into K2-EDTA tubes from the jugular vein at 0.083, 0.25, 0.5, 1, 2, 4, 8, and 24 h post dosing. After centrifugation, plasma samples were prepared via protein precipitation and detected through LC-MS/MS. The pharmacokinetics parameters were calculated using Phoenix software V 8.3.4.

A short description of series [6]: Liver microsomal stability, dog. It is filed as in vitro ADME. The conditions noted are these: pooled dog liver microsomes; for microsomal CLint: read-out: In vitro CLint; for half-life: read-out: In vitro T1/2; for CLint scaled: read-out: Scale-up CLint. The protocol:
as §1, §2

The mark [7] stands for this setting: male, Sprague-Dawley, plasma, Rat iv, dose 5 mg/kg (table).
The mark [8] stands for this setting: male, Sprague-Dawley, plasma, Rat po, dose 10 mg/kg (table).

With `O=C(O)c1ccc(C2(NC(=O)c3c(C(F)(F)F)sc4ccn(Cc5ccc(C(F)(F)F)cc5)c34)CC2)cc1` [Example 11, 4-(1-(2-(trifluoromethyl)-4-(4-(trifluoromethyl)benzyl)-4H-thieno[3,2-b]pyrrole-3-carboxamido)cyclopropyl)benzoic acid], in series [1], the IC50 is 1.2 nM.

In the case of `Cc1sc2ccn(Cc3ccc(C(F)(F)F)cc3)c2c1C(=O)NC1(C23CCC(C(=O)O)(CC2)CC3)CC1` [Example 8, 4-[1-[[2-methyl-4-[[4-(trifluoromethyl)phenyl]methyl]thieno[3,2-b]pyrrole-3-carbonyl]amino]cyclopropyl]bicyclo[2.2.2]octane-1-carboxylic acid], the IC50 in series [1] stood at 4.9 nM.

`O=C(NC1(C23CC(C(=O)O)(C2)C3)CC1)c1c(Cl)sc2ccn(Cc3ccc(C(F)(F)F)cc3)c12` [Example 5, 3-[1-[[2-chloro-4-[[4-(trifluoromethyl)phenyl]methyl]thieno[3,2-b]pyrrole-3-carbonyl]amino]cyclopropyl]bicyclo[1.1.1]pentane-1-carboxylic acid]: in series [1], the IC50 was 28 nM.

With `O=C(O)c1ccc(C2(NC(=O)c3c(Cl)sc4ccn(Cc5ccc(C(F)(F)F)cc5)c34)CC2)cc1` [Example 1, 4-[1-[[2-chloro-4-[[4-(trifluoromethyl)phenyl]methyl]thieno[3,2-b]pyrrole-3-carbonyl]amino]cyclopropyl]benzoic acid], in series [2], the microsomal CLint came out at 15 µL/min/mg, the half-life came to 1.54 h and the CLint scaled stood at 66.1 mL/min/kg. Also, in series [3], the microsomal CLint worked out at 11.4 µL/min/mg, the half-life amounted to 2.03 h and the CLint scaled came out at 14.3 mL/min/kg. Also, in series [4], the microsomal CLint amounted to 13.4 µL/min/mg, the half-life worked out at 1.73 h and the CLint scaled was determined as 24 mL/min/kg. In addition, in series [5] (Rat iv, dose 5 mg/kg (table)), the CL_obs turned out to be 2.57 mL/min/kg and the Vss_obs was determined as 1.64 L/kg. In series [5] (setting [7]), this molecule yielded an AUC(0-inf) of 33600 ng·h/mL, an AUC(0-t) of 27700 ng·h/mL, a C0 of 8380 ng/mL and a mean residence time MRT of 5.93 h. This molecule also showed a half-life in series [5] (setting [7]) of 9.47 h. In series [5] (setting [8]), this molecule registered an AUC(0-inf) of 26700 ng·h/mL, an AUC(0-t) of 23400 ng·h/mL, a Cmax of 1830 ng/mL and an MRT of 7.98 h. Besides, in series [5] (setting [8]), the Tmax amounted to 6.67 h and the half-life is 8.97 h. In series [5] (male, Sprague-Dawley, plasma, Rat po, dose 10 mg/kg vs iv 5 mg/kg (table)), this molecule yielded a bioavailability of 42.3%. In series [1], the IC50 was found to be 0.25 nM. Further, in series [6], the microsomal CLint is 9.89 µL/min/mg, the half-life came to 2.33 h and the CLint scaled was 24.6 mL/min/kg.

For the molecule `O=C(O)c1ccc(C2(NC(=O)c3c(F)sc4ccn(Cc5ccc(C(F)(F)F)cc5)c34)CC2)cc1` [Example 3, 4-(1-(2-fluoro-4-(4-(trifluoromethyl)benzyl)-4H-thieno[3,2-b]pyrrole-3-carboxamido)cyclopropyl)benzoic acid], the microsomal CLint was 6.85 µL/min/mg in series [2], 4.03 µL/min/mg in series [3], 8.4 µL/min/mg in series [4] and 3.2 µL/min/mg in series [6]. The half-life was 3.37 h in series [2], 5.73 h in series [3], 2.75 h in series [4] and 7.23 h in series [6]. Further, the CLint scaled in series [2] is 30.1 mL/min/kg; in series [3], 5.05 mL/min/kg; in series [4] it was 15 mL/min/kg; in series [6] it was 7.97 mL/min/kg. Besides, the IC50 in series [1] came out at 0.48 nM.

“3-[1-[[2-methyl-4-[[4-(trifluoromethyl)phenyl]methyl]thieno[3,2-b]pyrrole-3-carbonyl]amino]ethyl]bicyclo[1.1.1]pentane-1-carboxylic acid [Example 10]”: the IC50 in series [1] turned out to be 620 nM.

Regarding `O=C(NC1(C23CCC(C(=O)O)(CC2)CC3)CC1)c1c(Cl)sc2ccn(Cc3ccc(C(F)(F)F)cc3)c12` [Example 6, 4-[1-[[2-chloro-4-[[4-(trifluoromethyl)phenyl]methyl]thieno[3,2-b]pyrrole-3-carbonyl]amino]cyclopropyl]bicyclo[2.2.2]octane-1-carboxylic acid], the IC50 in series [1] was found to be 8.4 nM.

Take `CC(NC(=O)c1c(Cl)sc2ccn(Cc3ccc(C(F)(F)F)cc3)c12)C12CC(C(=O)O)(C1)C2` (stereo not shown) [Example 9, 3-[1-[[2-chloro-4-[[4-(trifluoromethyl)phenyl]methyl]thieno[3,2-b]pyrrole-3-carbonyl]amino]ethyl]bicyclo[1.1.1]pentane-1-carboxylic acid]: in series [1], the IC50 came out at 180 nM.

Regarding `Cc1sc2ccn(Cc3ccc(C(F)(F)F)cc3)c2c1C(=O)NC1(C23CC(C(=O)O)(C2)C3)CC1` [Example 7, 3-[1-[[2-methyl-4-[[4-(trifluoromethyl)phenyl]methyl]thieno[3,2-b]pyrrole-3-carbonyl]amino]cyclopropyl]bicyclo[1.1.1]pentane-1-carboxylic acid], the IC50 in series [1] is 50 nM.

Regarding `O=C(O)c1ccc(C2(NC(=O)c3c(CO)sc4ccn(Cc5ccc(C(F)(F)F)cc5)c34)CC2)cc1` [Example 2, 4-[1-[[2-(hydroxymethyl)-4-[[4-(trifluoromethyl)phenyl]methyl]thieno[3,2-b]pyrrole-3-carbonyl]amino]cyclopropyl]benzoic acid], in series [1], the IC50 turned out to be 1.1 nM.

`COc1sc2ccn(Cc3ccc(C(F)(F)F)cc3)c2c1C(=O)NC1(c2ccc(C(=O)O)cc2)CC1` [Example 4, 4-(1-(2-methoxy-4-(4-(trifluoromethyl)benzyl)-4H-thieno[3,2-b]pyrrole-3-carboxamido)cyclopropyl)benzoic acid]: the microsomal CLint was determined as 10.6 µL/min/mg in series [2], 3.24 µL/min/mg in series [3], 11.1 µL/min/mg in series [4] and 6.06 µL/min/mg in series [6]. In addition, the half-life in series [2] turned out to be 2.18 h; in series [3] it was 7.13 h; in series [4], 2.08 h; in series [6], 3.82 h. The CLint scaled in series [2] was 46.7 mL/min/kg; in series [3], 4.06 mL/min/kg; in series [4], 19.8 mL/min/kg; in series [6], 15.1 mL/min/kg. The IC50 in series [1] stood at 0.35 nM.

As a reminder, the IC50 is the concentration that inhibits the measured activity by half. What is called AUC(0-inf) is the area under the concentration-time curve extrapolated to infinity. What is called AUC(0-t) is exposure summed from dosing to a finite time, without extrapolation to infinity. Read a high AUC(0-t) as high exposure. One may read the MRT as the average time that molecules of a dose stay in the body. By Cmax is commonly meant the maximum level reached in the sampled fluid or tissue. What is called Tmax is the time at which the peak concentration occurs. What is called bioavailability is the share of a dose that reaches the circulation, judged against a reference dose that is usually intravenous.
